One assay addresses T1, human ROCKα/ROCKII mix (Homo sapiens, UniProt O75116).
T1 construct: purchased Upstate Biotechnology 14-451
The experiment in a line: Biochemical assay for ROCK (fluorescence polarization, ROCK IMAP Kit).

Another assay addresses T2, PKC epsilon (Homo sapiens, UniProt Q02156).
T2 construct: purchased Invitrogen P2282
T2 sequence (Q02156 1-737): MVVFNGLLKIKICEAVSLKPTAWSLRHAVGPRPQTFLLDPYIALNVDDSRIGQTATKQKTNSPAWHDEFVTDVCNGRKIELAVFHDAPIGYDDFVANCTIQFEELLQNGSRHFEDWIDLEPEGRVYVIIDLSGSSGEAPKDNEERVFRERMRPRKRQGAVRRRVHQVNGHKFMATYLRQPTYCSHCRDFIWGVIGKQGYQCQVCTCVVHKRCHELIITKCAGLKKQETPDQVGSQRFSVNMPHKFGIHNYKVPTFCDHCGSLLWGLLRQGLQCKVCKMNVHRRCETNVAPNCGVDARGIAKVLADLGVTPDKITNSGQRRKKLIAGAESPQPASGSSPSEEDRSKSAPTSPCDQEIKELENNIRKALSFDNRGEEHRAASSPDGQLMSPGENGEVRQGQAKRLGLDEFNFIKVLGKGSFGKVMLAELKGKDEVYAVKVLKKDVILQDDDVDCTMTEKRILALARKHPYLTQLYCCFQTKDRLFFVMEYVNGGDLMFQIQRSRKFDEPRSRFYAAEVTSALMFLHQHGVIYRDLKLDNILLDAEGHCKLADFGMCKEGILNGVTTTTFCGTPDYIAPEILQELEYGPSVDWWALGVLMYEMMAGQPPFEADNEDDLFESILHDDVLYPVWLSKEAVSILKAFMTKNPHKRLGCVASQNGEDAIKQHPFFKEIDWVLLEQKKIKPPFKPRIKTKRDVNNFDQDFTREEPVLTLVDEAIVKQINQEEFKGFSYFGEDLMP
The experiment in a line: Biochemical assay for PKC epsilon (fluorescence polarization, Protein Kinase C Assay Kit, Red). To be noted: read-out: IC50 μM PKCε. In outline:
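PKC epsilon at 10 ng/ml final was preincubated 30 min at room temperature with compound in HEPES pH 7.4 with DTT and Triton X-100. ATP/protein substrate was then added in buffer with MgCl2 and CaCl2 for 80 min. The reaction was stopped with EDTA, phosphorylation was detected by fluorescence polarization with rhodamine tracer and anti-phosphoserine antibody, and IC50 values came from curve fits.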
On the technique in general: Polarisation of emitted light reports the rotation of a fluorescent probe.

Where [1] appears, read: Table 2, compounds of Formula XIII.
Where [2] appears, read: compounds of Formula XIV, Table 3.

Read-outs that look alike come from different tables or passages of the source.

In patent publication US20100168102A9, “Amide Derivatives as Kinase Inhibitors” (Devgen NV, priority 2005, published 2010) one finds IC50 data, which are given here for 29 compounds.

T1 sequence (O75116 11-552 limits assumed): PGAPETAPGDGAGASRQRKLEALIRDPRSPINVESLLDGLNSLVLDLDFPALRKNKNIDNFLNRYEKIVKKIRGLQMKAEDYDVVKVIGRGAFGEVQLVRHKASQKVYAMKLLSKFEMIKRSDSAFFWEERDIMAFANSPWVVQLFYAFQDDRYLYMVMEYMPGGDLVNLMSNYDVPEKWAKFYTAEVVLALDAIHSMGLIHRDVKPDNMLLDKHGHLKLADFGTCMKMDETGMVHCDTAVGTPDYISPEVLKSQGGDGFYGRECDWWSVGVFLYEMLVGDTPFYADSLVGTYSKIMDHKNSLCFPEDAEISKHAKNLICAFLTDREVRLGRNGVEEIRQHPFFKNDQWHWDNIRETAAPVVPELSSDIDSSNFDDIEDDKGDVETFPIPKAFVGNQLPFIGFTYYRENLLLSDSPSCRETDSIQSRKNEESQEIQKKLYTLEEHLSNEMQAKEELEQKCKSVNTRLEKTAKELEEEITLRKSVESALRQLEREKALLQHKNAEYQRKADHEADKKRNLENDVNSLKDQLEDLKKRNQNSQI

For the compound `CCCCC(=O)NCC(N)c1ccc(C(=O)Nc2ccncc2)cc1` (stereo not shown) [Compound 33, 4-(1-Amino-2-pentanoylamino-ethyl)-N-pyridin-4-yl-benzamide], the 50% inhibitory concentration (IC50) on human ROCKα/ROCKII mix (setting [1]) and at PKC epsilon (setting [1]) was 0.5 to 5 µM throughout.

As to “4-[1-Amino-2-(1-(S)-p-tolyl- propylcarbamoyl)-ethyl]-N- pyridin-4-yl-benzamide [Compound 219]”, the IC50 at human ROCKα/ROCKII mix (setting [2]) lay within 0.05 to 0.5 µM; at PKC epsilon (setting [2]), 0.5 to 5 µM.

For the compound `Cc1cccc(CC(=O)N2CCCC2C(N)c2ccc(C(=O)Nc3ccncc3)cc2)c1` (stereo not shown) [Compound 524, 4-{Amino-[1-(2-m-tolyl-acetyl)-pyrrolidin-2-yl]-methyl}-N-pyridin-4-yl-benzamide], the IC50 against human ROCKα/ROCKII mix lay within 0.5 to 5 µM; on PKC epsilon, 5 to 50 µM.

As to `NC(CC(=O)NNC(=O)c1ccco1)c1ccc(C(=O)Nc2ccncc2)cc1` (stereo not shown) [Compound 325, 4-{1-amino-3[N′-(furan-2-carbonyl)-hydrazino]-3-oxo-propyl}-N-pyridin-4-yl-benzamide], the figures for the concentration for half-maximal inhibition (IC50) on human ROCKα/ROCKII mix (setting [2]) and at PKC epsilon (setting [2]) were 0.05 to 0.5 µM and 0.5 to 5 µM, respectively.

As to `NC(CNC(=O)CCc1cccnc1)c1ccc(C(=O)Nc2ccncc2)cc1` (stereo not shown) [Compound 166, 4-[1-Amino-2-(3-pyridin-3-yl-propionylamino)-ethyl]-N-pyridin-4-yl-benzamide], the IC50 on human ROCKα/ROCKII mix (setting [1]) was 0.5 to 5 µM; at PKC epsilon (setting [1]), 5 to 50 µM.

In the case of `NC(CNC(=O)Cc1ccc2ccccc2c1)c1ccc(C(=O)Nc2ccncc2)cc1` (stereo not shown) [Compound 135, 4-[1-Amino-2-(2-naphtalen-2-yl-acetylamino)-ethyl]-N-pyridin-4-yl-bennzamide], the IC50 against human ROCKα/ROCKII mix (setting [1]) fell in the range of 0.5 to 5 µM; at PKC epsilon (setting [1]), 5 to 50 µM.

`CN(CC(N)c1ccc(C(=O)Nc2ccncc2)cc1)C(=O)Cc1ccc(F)cc1Cl` (stereo not shown) [Compound 498, 4-(1-Amino-2-{[2-(2-chloro-4-fluoro-phenyl)-acetyl]-methyl-amino}-ethyl)-N-pyridin-4-yl-benzamide]: the IC50 against human ROCKα/ROCKII mix was 0.5 to 5 µM; on PKC epsilon, 5 to 50 µM.

With `CS(=O)(=O)c1cccc(C(=O)NCC(N)c2ccc(C(=O)Nc3ccncc3)cc2)c1` (stereo not shown) [Compound 96, 4-[1-amino-2-(3-methanesulfonyl-benzoylamino)-ethyl]-N-pyridin-4-yl-benzamide], the IC50 against human ROCKα/ROCKII mix (setting [1]) and at PKC epsilon (setting [1]) was 0.5 to 5 µM each time.

Consider `NC(CNC(=O)c1ccncc1)c1ccc(C(=O)Nc2ccncc2)cc1` (stereo not shown) [Compound 104, N-{2-Amino-2-[4-(pyridin-4-ylcarbamoyl)-phenyl]-ethyl}-isonicotinamide], for which the IC50 against human ROCKα/ROCKII mix (setting [1]) lay within 0.5 to 5 µM; on PKC epsilon (setting [1]) it was 5 to 50 µM.

`CN(CC(N)c1ccc(C(=O)Nc2ccncc2)cc1)C(=O)Cc1cccc(F)c1F` (stereo not shown) [Compound 477, 4-(1-Amino-2-{[2-(2,3-difluoro-phenyl)-acetyl]-methyl-amino}-ethyl)-N-pyridin-4-yl-benzamide]: the results for the IC50 against human ROCKα/ROCKII mix and at PKC epsilon were 0.5 to 5 µM and 5 to 50 µM, respectively.

For `NC(c1ccc(C(=O)Nc2ccncc2)cc1)C1CCCN1C(=O)C1(c2ccc(Cl)cc2)CCC1` (stereo not shown) [Compound 565, 4-(Amino-{1-[1-(4-chloro-phenyl)-cyclobutanecarbonyl]-pyrrolidin-2-yl}-methyl)-N-pyridin-4-yl-benzamide], the IC50 against human ROCKα/ROCKII mix and at PKC epsilon was 0.5 to 5 µM in each case.

For “Bicyclo[4.2.0]octa-1(6),2,4- triene-7-carboxylic acid {2- amino-2-[4-(pyridin-4- ylcarbamoyl)-phenyl]-ethyl}- methyl-amide [Compound 451]”, the IC50 against human ROCKα/ROCKII mix lay in the range of 0.05 to 0.5 µM; at PKC epsilon, 5 to 50 µM.

As for `NC(c1ccc(C(=O)Nc2ccncc2)cc1)C1CCCN1C(=O)C1(c2ccc(Cl)cc2)CCCC1` (stereo not shown) [Compound 566, 4-(Amino-{1-[1-(4-chloro-phenyl)-cyclopentanecarbonyl]-pyrrolidin-2-yl}-methyl)-N-pyridin-4-yl-benzamide], the IC50 against human ROCKα/ROCKII mix and on PKC epsilon was 0.5 to 5 µM in each case.

Consider `CC(C)(C(=O)NC[C@H](N)c1ccc(C(=O)Nc2ccncc2)cc1)c1ccc(Cl)cc1` [Compound 400, 4-{(R)-1-Amino-2-[2-(4-chloro-phenyl)-2-methyl-propionylamino]-ethyl}-N-pyridin-4-yl-benzamide], for which the concentration for half-maximal inhibition (IC50) at human ROCKα/ROCKII mix and on PKC epsilon was 0.5 to 5 µM in each case.

`NC(CC(=O)NCc1ccc(F)cc1Cl)c1ccc(C(=O)Nc2ccncc2)cc1` (stereo not shown) [Compound 261, 4-[1-Amino-2-(2-chloro-4-fluoro-benzylcarbamoyl)-ethyl]-N-pyridin-4-yl-benzamide]: the results for the IC50 at human ROCKα/ROCKII mix (setting [2]) and on PKC epsilon (setting [2]) were 0.05 to 0.5 µM and 0.5 to 5 µM, respectively.

For `NC(CNC(=O)C(c1ccccc1)C1CCCC1)c1ccc(C(=O)Nc2ccncc2)cc1` (stereo not shown) [Compound 136, 4-[1-Amino-2-(2-cyclopentyl-2-phenyl-acetylamino)-ethyl]-N-pyridin-4-yl-bennzamide], the results for the IC50 against human ROCKα/ROCKII mix (setting [1]) and on PKC epsilon (setting [1]) were 0.5 to 5 µM and 5 to 50 µM, respectively.

For `COc1cc(OC)cc(C(=O)NCC(N)c2ccc(C(=O)Nc3ccncc3)cc2)c1` (stereo not shown) [Compound 79, 4-[1-amino-2-(3,5-dimethoxy-benzoylamino)-ethyl]-N-pyridin-4-yl-benzamide], the IC50 on human ROCKα/ROCKII mix (setting [1]) and on PKC epsilon (setting [1]) was 0.5 to 5 µM each time.

As to `COc1ccc(OC)c(CNC(=O)CC(N)c2ccc(C(=O)Nc3ccncc3)cc2)c1` (stereo not shown) [Compound 242, 4-[1-Amino-2-(2,5-dimethoxy-benzylcarbamoyl)-ethyl]-N-pyridin-4-yl-benzamide], the IC50 lay within 0.05 to 0.5 µM at human ROCKα/ROCKII mix (setting [2]) and 0.5 to 5 µM on PKC epsilon (setting [2]).

In the case of “4-(1-Amino-2-{[2-(3-bromo- phenyl)-acetyl]-methyl- amino}-ethyl)- N-pyridin-4-yl-benzamide [Compound 456]”, the results for the IC50 against human ROCKα/ROCKII mix and at PKC epsilon were 0.5 to 5 µM and 5 to 50 µM, respectively.

Take `NC(c1ccc(C(=O)Nc2ccncc2)cc1)C1CCCN1C(=O)C1CCOc2ccc(F)cc21` (stereo not shown) [Compound 617, 4-{Amino[1-(6-fluoro-chroman-4-carbonyl)-pyrrolidin-2-yl]-methyl}-N-pyridin-4-benzamide]: the IC50 against human ROCKα/ROCKII mix and at PKC epsilon was 0.5 to 5 µM in each case.

Consider `CCCOc1ccc(C(=O)NCC(N)c2ccc(C(=O)Nc3ccncc3)cc2)cc1` (stereo not shown) [Compound 75, 4-[1-amino-2-(4-propoxy-benzoylamino)-ethyl]-N-pyridin-4-yl-benzamide], for which the IC50 against human ROCKα/ROCKII mix (setting [1]) is 0.5 to 5 µM; at PKC epsilon (setting [1]) it was 5 to 50 µM.

In the case of `NC(CC(=O)NCc1ccccc1F)c1ccc(C(=O)Nc2ccncc2)cc1` (stereo not shown) [Compound 256, 4-[1-Amino-2-(2-fluoro-benzylcarbamoyl)-ethyl]-N-pyridin-4-yl-benzamide], the IC50 is 0.05 to 0.5 µM against human ROCKα/ROCKII mix (setting [2]) and 0.5 to 5 µM at PKC epsilon (setting [2]).

For “4-{Amino-[1-(2-1H-indol-3-yl-acetyl)-pyrrolidin-2-yl]-methyl}-N-pyridin-4-yl-benzamide [Compound 545]”, the IC50 at human ROCKα/ROCKII mix lay in the range of 0.05 to 0.5 µM; on PKC epsilon, 0.5 to 5 µM.

Regarding “4-{1-Amino-2-[ethyl-(4-nitro- benzyl}-carbamoyl]-ethyl)-N- pyridin-4-yl-benzamide [Compound 274]”, the IC50 was in the range of 0.05 to 0.5 µM on human ROCKα/ROCKII mix (setting [2]) and 0.5 to 5 µM on PKC epsilon (setting [2]).

`CN(CC(N)c1ccc(C(=O)Nc2ccncc2)cc1)C(=O)C1(c2ccc(F)c(F)c2)CCC1` (stereo not shown) [Compound 487, 4-(1-Amino-2-{[1-(3,4-difluoro-phenyl)-cyclobutanecarbonyl]-methyl-amino}-ethyl)-N-pyridin-4-yl-benzamide]: the IC50 against human ROCKα/ROCKII mix and on PKC epsilon was 0.5 to 5 µM throughout.

Regarding `CC1CC1C(=O)NCC(N)c1ccc(C(=O)Nc2ccncc2)cc1` (stereo not shown) [Compound 40, 4-{1-Amino-2-[(2-methyl-cyclopropanecarbonyl)-amino]-ethyl}-N-pyridin-4-yl-benzamide], the IC50 at human ROCKα/ROCKII mix (setting [1]) and on PKC epsilon (setting [1]) was 0.5 to 5 µM throughout.

Turning to `NC(CNC(=O)CC1C=CCC1)c1ccc(C(=O)Nc2ccncc2)cc1` (stereo not shown) [Compound 48, 4-[1-Amino-2-(2-cyclopent-2-enyl-acetylamino)-ethyl]-N-pyridin-4-yl-benzamide], the IC50 on human ROCKα/ROCKII mix (setting [1]) lay within 0.05 to 0.5 µM; at PKC epsilon (setting [1]), 0.5 to 5 µM.

On to `CC(=O)NCCNC(=O)CC(N)c1ccc(C(=O)Nc2ccncc2)cc1` (stereo not shown) [Compound 175, 4-[2-(2-acetylamino-ethylcaramoyl)-1-amino-ethyl]-N-pyridin-4-yl-benzamide], for which the figures for the IC50 at human ROCKα/ROCKII mix (setting [2]) and on PKC epsilon (setting [2]) were 0.05 to 0.5 µM and 0.5 to 5 µM, respectively.

As for `NC(CC(=O)NCc1ccc(Cl)cc1Cl)c1ccc(C(=O)Nc2ccncc2)cc1` (stereo not shown) [Compound 252, 4-[1-Amino-2-(2,4-dichloro-benzylcarbamoyl)-ethyl]-N-pyridin-4-yl-benzamide], the IC50 on human ROCKα/ROCKII mix (setting [2]) lay within 0.05 to 0.5 µM; at PKC epsilon (setting [2]), 0.5 to 5 µM.

As usually defined, the IC50 is the concentration that inhibits the measured activity by half.
